The structures appear in SMILES notation.

The record followed here is US11865096B2, “Oils with anti-inflammatory activity containing natural specialized proresolving mediators and their precursors” (Solutex NA LLC, priority 2012, dated 2024).

In experiment [1] the test system is zymosan A-induced peritoneal inflammation (inflammatory exudate cells). Description: Murine peritoneal inflammation induced by zymosan A, exudate cells by FACS. The experiment is classed as in vivo, mouse. The following applies: 4 hours after 0.1 mg zymosan A i.p., vs vehicle. Here is the method:
With respect to 17-HDHA, it is possible that the anti-inflammatory activity of oil fraction 1 (shown in FIG. 1A) can therefore be explained, at least in part, due to the selective enrichment of this anti-inflammatory SPM precursor into this oil fraction. In order to determine the anti-inflammatory action and contribution of 17-HDHA, the anti-inflammatory effect of fraction 1 was determined in a well-known model of sterile inflammation. […] Vehicle (100 microliter sterile salive), 100 microliter oil fraction 1, or 1 microgram synthetic 17S-HDHA (Cayman Chemicals) in sterile salive was administered by gavage 30 minutes prior to intraperitoneal injection of 0.1 mg zymosan A. Oil fraction 1 analyzed here is the same as fraction number 1 shown in FIGS. 1, 2, and 3. After 4 hours, the inflammatory exudate was recovered and the changes in the number and types of inflammatory cells determined by fluorescent-activated cell sorting employing specific fluorescently-labeled antibodies. Values are mean±standard error of the mean of […] individual mice. Statistically significant differences (Student's t-test) are indicated by * (P<0,05) or # (P<0,10) for comparisons of inflammatory exudate cell numbers obtained after treatment with oil fraction 1 or compared to the vehicle-treated mice. […] This anti-inflammatory effect was reproduced by the oral administration (gavage) of 17S-HDHA.
A general note: In flow cytometry, cells or beads pass a laser one at a time.

For experiment [2], the system named is LPS-induced inflammation (neutrophil infiltration, myeloperoxidase bioluminescence). Description: Murine subcutaneous LPS-induced inflammation, neutrophil activity by luminol bioluminescence. The experiment is classed as in vivo, mouse. The settings on record: given by gavage 30 min prior to LPS (oil fraction 100 microliter; indomethacin 10 mg/kg), vs vehicle. The text has this: To evaluate the anti-inflammatory activity of distinct fatty acid-ethyl ester oil fractions obtained during supercritical fluid chromatography (SFC) for the industrial-scale manufacturing of EPA-ethyl ester and DHA-ethyl ester concentrates, a murine model of subcutaneous sterile inflammation was established which permitted measuring the effects of orally administered oil fractions on the pro-inflammatory phase of the inflammatory response. […] In order to initiate inflammation, Escherichia coli lipopolysaccharide (LPS; serotype 127:B8, purified by trichloroacetic acid extraction, Sigma-Aldrich) was injected sub-cutaneously as a single dose (5 milligram per kilogram in a 200 microliter volume of sterile […] dorsal hind flank of a mouse (CD1 mice of 9 weeks age and weighing approximately 30 grams, purchased from the Charles River company). Neutrophil infiltration into the site of inflammation was measured non-invasively by bioluminescence emitted by conversion of luminol by the neutrophil enzyme myeloperoxidase (Gross, 2009), permitting assessment of inflammatory changes over a 6 hour time period. […]

Setting [3] is: gavage 30 min prior (100 microliter oil fraction or 1 microgram 17S-HDHA).

On to `CC/C=C\C[C@H](O)/C=C/C=C\C/C=C\C/C=C\C/C=C\CCC(=O)O` [17S-HDHA, 17S-hydroxy-docosa-4Z,7Z,10Z,13Z,15E,19Z-hexaenoic acid], for which, in experiment [1] (setting [3]), the “number of polymorphonuclear leukocytes (PMN) in exudate” value is on record as “reproduced” and the “total number of exudate cells” value is listed as “reproduced”. In addition, the “monocytes, macrophages or lymphocytes in exudate” value in experiment [1] (gavage 30 min prior) was “No statistically significant changes”.
On to `COc1ccc2c(c1)c(CC(=O)O)c(C)n2C(=O)c1ccc(Cl)cc1` [indomethacin], for which the “reduction of LPS-induced inflammation” value is on record as 26% in experiment [2] (3 hours after LPS s.c.) and 44% in experiment [2] (6 hours after LPS s.c.).
